These results are taken from US10736968B2, “Cellular signalling inhibitors, their formulations and methods thereof” (INVICTUS ONCOLOGY PVT. LTD., priority 2016, dated 2020).

The test system of the assay is AKT-mTOR-p70S6K pathway. The assay is described as follows: Downstream signaling in macrophages after drug washout and MCSF exposure (Western blot). The settings on record: 4 hours drug, washout 7 h or 48 h, MCSF 2 h. Format: cell-based.

As for `FC(F)(F)c1ccc(CNc2ccc(Cc3c[nH]c4ncc(Cl)cc34)cn2)cn1` [PLX3397], the AKT-mTOR-p70S6K downstream signaling entry is “not by BLZ945 and PLX3397”.
